Experiment [1] concerns the target T1, Beta-2 adrenergic receptor (Rattus norvegicus, UniProt P10608).
Description: Vasodilating activity against phenylephrine-induced contraction in rat thoracic aorta in presence of 1H-[1,2,4]oxadiazolo-[4,3-a]quinoxalin-1-one
For experiment [2], the system named is Liver microsomes. Briefly: Antioxidant activity in rat hepatic microsomal membrane.
In experiment [3] the target is T2, Beta-2 adrenergic receptor (Cavia porcellus, UniProt Q8K4Z4).
Description: Agonist activity at adrenergic beta-2 receptor in guinea pig tracheal rings assessed as myorelaxing activity on carbachol-induced contraction in presence of 1H-[1,2,4]oxadiazolo-[4,3-a]quinoxalin-1-one
Experiment [4] concerns the target T1, Beta-2 adrenergic receptor. The experiment in a line: Vasodilating activity against phenylephrine-induced contractions in rat thoracic aorta.
The target of experiment [5] is T2, Beta-2 adrenergic receptor. The source holds these as a separate data set.
Experiment [6] can be described thus: Effect on nitric oxide release in phosphate buffer at pH 7.4 in presence of cysteine at 100 uM. In kind it is functional.
Experiment [7] has as its system Liver microsomes. Briefly: Antioxidant activity in rat hepatic microsomal membrane at 1 mM. In kind it is functional. As to conditions: Microsome.
Experiment [8] addresses Beta-2 adrenergic receptor (Cavia porcellus) (UniProt Q8K4Z4). The experiment in a line: Agonist activity at adrenergic beta-2 receptor in guinea pig tracheal rings assessed as myorelaxing activity on carbachol-induced contraction at 100 uM. The experiment is classed as functional. Set-up: scale not given: the % may be the effect or the level left.
For experiment [9], the target named is Beta-2 adrenergic receptor (Rattus norvegicus) (UniProt P10608). Briefly: Vasodilating activity in rat thoracic aorta on phenylephrine-induced contraction at 100 uM. In kind it is functional, tissue-based.
In experiment [10] the target is T2, Beta-2 adrenergic receptor. This is another data set of the same source.
In experiment [11] the target is Beta-2 adrenergic receptor (Rattus norvegicus) (UniProt P10608). The experiment is classed as functional, tissue-based. As to conditions: Thoracic aorta, 100 uM.

Molecules are shown by their SMILES. Active and inactive are the calls of the source. No cut-off for these calls is given here.

T1 sequence (P10608 whole entry): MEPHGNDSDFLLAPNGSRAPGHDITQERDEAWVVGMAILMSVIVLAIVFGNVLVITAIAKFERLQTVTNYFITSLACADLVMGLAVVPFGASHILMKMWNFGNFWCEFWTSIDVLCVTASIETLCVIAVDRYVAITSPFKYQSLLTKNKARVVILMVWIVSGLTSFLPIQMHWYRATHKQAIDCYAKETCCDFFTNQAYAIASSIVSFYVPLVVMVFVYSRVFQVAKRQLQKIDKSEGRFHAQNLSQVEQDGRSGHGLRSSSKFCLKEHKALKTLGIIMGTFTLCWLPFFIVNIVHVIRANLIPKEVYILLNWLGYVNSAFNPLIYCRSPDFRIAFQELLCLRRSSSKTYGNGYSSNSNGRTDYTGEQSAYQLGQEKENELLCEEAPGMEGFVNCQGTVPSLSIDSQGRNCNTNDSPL
Chain of Beta-2 adrenergic receptor (Rattus norvegicus) (P10608 whole entry, looked up): as the sequence (P10608 whole entry) above
T2 sequence (Q8K4Z4 whole entry): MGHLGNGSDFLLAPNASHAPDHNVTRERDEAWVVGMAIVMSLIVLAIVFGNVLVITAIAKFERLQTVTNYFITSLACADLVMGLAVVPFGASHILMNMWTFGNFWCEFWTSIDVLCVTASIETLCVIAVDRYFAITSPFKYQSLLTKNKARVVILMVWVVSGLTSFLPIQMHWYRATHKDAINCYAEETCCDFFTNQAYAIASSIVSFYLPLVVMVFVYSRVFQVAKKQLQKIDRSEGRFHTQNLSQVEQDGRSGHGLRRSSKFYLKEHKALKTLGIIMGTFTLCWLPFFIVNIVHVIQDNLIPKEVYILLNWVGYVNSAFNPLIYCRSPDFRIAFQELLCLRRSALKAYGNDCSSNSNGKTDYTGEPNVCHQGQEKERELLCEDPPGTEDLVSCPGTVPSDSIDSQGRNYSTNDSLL
Chain of Beta-2 adrenergic receptor (Cavia porcellus) (Q8K4Z4 whole entry, looked up): as the sequence (Q8K4Z4 whole entry) above

On to `CC(Cc1ccc(OCc2no[n+]([O-])c2C(N)=O)cc1)NCC(O)c1cc(O)cc(O)c1` (stereo in doubt; 34a) [listing 1 of 2 here], for which the EC50 in [1] was 14000 nM; in [3], 130 nM; in experiment [4] it was 1200 nM; in experiment [5], 110 nM. In addition, the midpoint of inhibition in the experiment with Liver microsomes [2], the IC50, lay at 156000 nM.
On to `Cc1nonc1COc1ccc(CC(C)NCC(O)c2cc(O)cc(O)c2)cc1` (stereo in doubt; 37b), for which, in [5], the EC50 came to 2200 nM.
On to `CC(Cc1ccc(Oc2no[n+]([O-])c2S(=O)(=O)c2ccccc2)cc1)NCC(O)c1cc(O)cc(O)c1` (stereo in doubt; 15a) [listing 1 of 2 here], for which the EC50 in experiment [1] is 860 nM; in experiment [3], 17 nM; in experiment [4] it was 14 nM; in experiment [5], 18 nM. In the experiment with Liver microsomes [2], this compound displayed an IC50 of 13500 nM.
As to `CC(Cc1ccc(Oc2no[n+]([O-])c2S(=O)(=O)c2ccccc2)cc1)NCC(O)c1cc(O)cc(O)c1` (stereo in doubt; 15a) [listing 2 of 2 here], the Activity in experiment [6] was 28.4%.
Regarding `CC(Cc1ccc(OCc2no[n+]([O-])c2C(N)=O)cc1)NCC(O)c1cc(O)cc(O)c1` (racemic) [listing 1 of 2 here], the Activity in [6] was found to be 10.4%.
As for `Cc1c(CO)no[n+]1[O-]`, the Activity in experiment [6] was under 1%; in experiment [8], under 50%; in experiment [9], under 50%. In addition, the outcome in the experiment with Liver microsomes [7] was inactive.
In the case of `CC(Cc1ccc(OCc2no[n+]([O-])c2C(N)=O)cc1)NCC(O)c1cc(O)cc(O)c1` (racemic) [listing 2 of 2 here], the EC50 is 16000 nM in experiment [1], 1100 nM in experiment [3], 1200 nM in [4] and 1000 nM in experiment [5].
For the compound `CCOc1no[n+]([O-])c1S(=O)(=O)c1ccccc1`, the Activity in [6] came out at 36%. Moreover, the values for the EC50 in experiment [1], in experiment [4] and in experiment [5] were 1200 nM, 12 nM and 2300 nM, respectively. This compound also came in with an IC50 in the experiment with Liver microsomes [2] of 110000 nM.
Take `CC(Cc1ccc(OCc2nonc2C(N)=O)cc1)NCC(O)c1cc(O)cc(O)c1` (stereo in doubt; 35a): the IC50 with Liver microsomes [2] was found to be 286000 nM. A half-maximal response in [5] (EC50) required 29 nM.
With `CC(Cc1ccc(Oc2nonc2S(=O)(=O)c2ccccc2)cc1)NCC(O)c1cc(O)cc(O)c1` (stereo in doubt; 16a), it took 57000 nM to reach half-maximal inhibition with Liver microsomes [2] (IC50). The compound also displayed an EC50 in [5] of 39 nM.
Regarding `CC(Cc1ccc(Oc2nonc2S(=O)(=O)c2ccccc2)cc1)NCC(O)c1cc(O)cc(O)c1` (stereo in doubt; 16b), the EC50 in experiment [10] worked out at 39 nM.
Turning to `Cc1c(COc2ccc(CC(C)NCC(O)c3cc(O)cc(O)c3)cc2)no[n+]1[O-]` (stereo in doubt; 36b) [listing 1 of 2 here], the Activity in experiment [6] is under 1%; in experiment [11], under 50%.
For the compound `NC(=O)c1c(CO)no[n+]1[O-]`, the Activity was 12% in experiment [6] and under 50% in experiment [11]. In addition, in the experiment with Liver microsomes [7], the result was inactive. Also, the EC50 worked out at 6300 nM in [4] and 86000 nM in experiment [5].
On to `CC(Cc1ccc(OCc2no[n+]([O-])c2C(N)=O)cc1)NCC(O)c1cc(O)cc(O)c1` (stereo in doubt; 34a) [listing 2 of 2 here], for which, in experiment [6], the Activity was 11.5%.
For `Cc1c(COc2ccc(CC(C)NCC(O)c3cc(O)cc(O)c3)cc2)no[n+]1[O-]` (stereo in doubt; 36a) [listing 1 of 2 here], the IC50 with Liver microsomes [2] was 298000 nM. For the same compound, the EC50 in experiment [3] was determined as 230 nM; in [4], 18000 nM; in experiment [5], 220 nM.
The compound `Cc1nonc1COc1ccc(CC(C)NCC(O)c2cc(O)cc(O)c2)cc1` (stereo in doubt; 37a) displayed an IC50 with Liver microsomes [2] of 123000 nM. The compound further had an EC50 in [5] of 110 nM.
Take `Cc1c(COc2ccc(CC(C)NCC(O)c3cc(O)cc(O)c3)cc2)no[n+]1[O-]` (stereo in doubt; 36a) [listing 2 of 2 here]: the results for the Activity in [6] and in experiment [11] were under 1% and under 50%, respectively.
For `CC(Cc1ccc(Oc2no[n+]([O-])c2S(=O)(=O)c2ccccc2)cc1)NCC(O)c1cc(O)cc(O)c1` (stereo in doubt; 15b) [listing 1 of 2 here], the Activity in experiment [6] was 27.5%.
The compound `CC(Cc1ccc(OCc2nonc2C(N)=O)cc1)NCC(O)c1cc(O)cc(O)c1` (stereo in doubt; 35b) gave an EC50 in experiment [5] of 170 nM.
Consider `CC(Cc1ccc(Oc2no[n+]([O-])c2S(=O)(=O)c2ccccc2)cc1)NCC(O)c1cc(O)cc(O)c1` (stereo in doubt; 15b) [listing 2 of 2 here], for which the EC50 in experiment [1] is 1300 nM; in experiment [3], 440 nM; in experiment [4], 14 nM; in experiment [5], 250 nM.
For the compound `Cc1c(COc2ccc(CC(C)NCC(O)c3cc(O)cc(O)c3)cc2)no[n+]1[O-]` (stereo in doubt; 36b) [listing 2 of 2 here], the EC50 came to 1200 nM in [3], 20000 nM in [4] and 1300 nM in experiment [5].

The values above are taken from ChEMBL document CHEMBL1148806 (J Med Chem, 2007).
